Test results as given in US10941132B2, “Pyrazole derivatives” (HUA MEDICINE (SHANGHAI) Ltd., priority 2016, dated 2021).
Like-named read-outs stand apart in the source and are kept apart here.

Target: T1, recombinant rat mGluR5 (Rattus norvegicus, UniProt P31424)
T1 construct: expressed in transfected cells
Assay: Functional calcium flux assay (FLIPR), antagonist evaluation against glutamate-evoked [Ca2+]i increase
Assay type: cell-based
Conditions: HEK293 cells stably expressing recombinant rat mGluR5, 15 min incubation of test compound, then submaximal glutamate
Description: Functional Calcium Clux Assay Methodology
For functional assays, HEK293 cells stably expressing recombinant rat mGluR5 were seeded in 384-well plates and dye loaded using Fluo-8. Cells were then washed to remove the un-incorporated dye. Antagonist evaluation was performed following a 15 min incubation of the test compound followed by the addition of submaximal concentration of glutamate. Intracellular calcium ([Ca^2+]i) measurements were performed using a fluorometric imaging plate reader (FLIPR, Molecular Devices). The glutamate-evoked increase in [Ca^2′]i in the presence of the test compounds was compared to the response to glutamate alone (the positive control). Antagonist inhibition curves were fitted with a 4-parameter logistic equation giving IC50 values, and Hill coefficients using an iterative nonlinear curve fitting algorithm.
The tables below provide IC50 data in this assay. In the activity column, A=IC50>1,000 and ≤5,000 nM; B=IC50>500 and ≤1,000 nM and C=IC50≤500 nM.

[1] = Table 1, read-out: IC50 value (FLIPR assay)
[2] = Table 2, read-out: IC50 (FLIPR assay)

T1 sequence (P31424 21-1203): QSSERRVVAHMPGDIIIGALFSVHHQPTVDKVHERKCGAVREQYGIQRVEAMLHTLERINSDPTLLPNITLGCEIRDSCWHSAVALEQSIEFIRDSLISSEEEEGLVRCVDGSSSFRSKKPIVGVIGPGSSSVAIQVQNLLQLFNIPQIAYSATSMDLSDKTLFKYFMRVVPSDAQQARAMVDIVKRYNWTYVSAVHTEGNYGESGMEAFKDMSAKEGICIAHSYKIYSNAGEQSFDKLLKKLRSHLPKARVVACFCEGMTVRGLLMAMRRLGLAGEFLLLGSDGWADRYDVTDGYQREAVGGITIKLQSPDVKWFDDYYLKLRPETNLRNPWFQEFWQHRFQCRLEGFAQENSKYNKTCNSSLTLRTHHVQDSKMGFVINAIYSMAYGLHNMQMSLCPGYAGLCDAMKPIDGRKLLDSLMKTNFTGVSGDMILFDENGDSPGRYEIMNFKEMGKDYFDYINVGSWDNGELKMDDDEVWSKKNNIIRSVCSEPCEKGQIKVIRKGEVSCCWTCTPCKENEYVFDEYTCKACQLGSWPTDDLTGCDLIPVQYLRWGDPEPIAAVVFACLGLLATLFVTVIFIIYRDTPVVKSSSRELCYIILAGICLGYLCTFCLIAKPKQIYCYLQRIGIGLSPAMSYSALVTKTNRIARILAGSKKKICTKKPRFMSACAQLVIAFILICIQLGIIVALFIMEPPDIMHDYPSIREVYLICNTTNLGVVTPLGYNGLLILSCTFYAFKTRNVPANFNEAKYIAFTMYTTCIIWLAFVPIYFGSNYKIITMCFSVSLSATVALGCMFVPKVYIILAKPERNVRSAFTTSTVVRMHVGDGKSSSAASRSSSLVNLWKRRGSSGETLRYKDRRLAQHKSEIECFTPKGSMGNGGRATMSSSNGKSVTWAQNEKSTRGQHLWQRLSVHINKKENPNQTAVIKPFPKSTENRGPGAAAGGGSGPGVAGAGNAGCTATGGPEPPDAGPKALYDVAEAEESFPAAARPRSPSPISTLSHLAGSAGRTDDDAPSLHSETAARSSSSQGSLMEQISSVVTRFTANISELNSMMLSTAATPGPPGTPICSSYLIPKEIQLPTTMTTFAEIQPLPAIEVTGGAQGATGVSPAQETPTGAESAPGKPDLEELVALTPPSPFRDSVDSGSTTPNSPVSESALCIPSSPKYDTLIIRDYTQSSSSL

Structure (SMILES)	IC50 [1]	IC50 [2]
Cc1c(C#Cc2ccccn2)c(OC(F)F)nn1-c1cc(F)cc(C#N)c1 [Compound 37, 3-(3-(difluoromethoxy)-5-methyl-4-(pyridin-2-ylethynyl)-1H-pyrazol-1-yl)-5-fluorobenzonitrile]	≤ 500 nM	
Cc1nn(-c2ccc(F)cc2)c(C(F)(F)F)c1C#Cc1ccccn1 [Compound 12, 2-((1-(4-fluorophenyl)-3-methyl-5-(trifluoromethyl)-1H-pyrazol-4-yl)ethyny) pyridine]	≤ 500 nM	
Cc1cn(-c2ccc(F)cn2)nc1C#Cc1ccccn1 [Compound 72, 5-fluoro-2-(4-methyl-3-(pyridin-2-ylethynyl)-1H-pyrazol-1-yl) pyridine]		500 to 1000 nM
N#Cc1cc(F)cc(-n2cc(C#Cc3ccccn3)cn2)c1 [Compound 75, 3-fluoro-5-(4-(pyridin-2-ylethynyl)-1H-pyrazol-1-yl)benzonitrile]	≤ 500 nM	
Cc1nn(-c2ccc(OC(F)(F)F)cc2)c(C(F)(F)F)c1C#Cc1ccccn1 [Compound 13, 2-((3-methyl-1-(4-(trifluoromethoxy)phenyl)-5-(trifluoromethyl)-1H-pyrazol-4-yl)ethynyl) pyridine]	1000 to 5000 nM	
Fc1ccc(-n2ccc(C#Cc3ccccc3)n2)cc1 [Compound 113, 1-(4-fluorophenyl)-3-(phenylethynyl)-1H-pyrazole]		1000 to 5000 nM
Fc1ccc(-n2cc(C#Cc3ccccc3)cn2)cc1 [Compound 81, 1-(4-fluorophenyl)-4-(phenylethynyl)-1H-pyrazole]	≤ 500 nM	
Fc1cncc(-n2cc(C#Cc3ncccn3)c(Cl)n2)c1 [Compound 45, 2-((3-chloro-1-(5-fluoropyridin-3-yl)-1H-pyrazol-4-yl)ethynyl) pyrimidine]	1000 to 5000 nM	
Fc1cncc(-n2cc(C#Cc3ccccn3)c(Cl)n2)c1 [Compound 44, 3-(3-chloro-4-(pyridin-2-ylethynyl)-1H-pyrazol-1-yl)-5-fluoropyridine]	≤ 500 nM	
FC(F)(F)Oc1ccc(-n2cc(C#Cc3ncccn3)c(Cl)n2)cc1 [Compound 41, 2-((3-chloro-1-(4-(trifluoromethoxy)phenyl)-1H-pyrazol-4-yl)ethynyl)pyrimidine]	1000 to 5000 nM	
N#Cc1cc(F)cc(-n2cc(C#Cc3cnccn3)cn2)c1 [Compound 80, 3-fluoro-5-(4-(pyrazin-2-ylethynyl)-1H-pyrazol-1-yl)benzonitrile]	1000 to 5000 nM	
Cc1cc(C#Cc2cnccn2)nn1-c1cc(F)cc(C#N)c1 [Compound 103, 3-fluoro-5-(5-methyl-3-(pyrazin-2-ylethynyl)-1H-pyrazol-1-yl) Benzonitrile]		≤ 500 nM
Fc1ccc(-n2ccc(C#Cc3cccc(Cl)c3)n2)cc1 [Compound 115, 3-((3-chlorophenyl)ethynyl)-1-(4-fluorophenyl)-1H-pyrazole]		500 to 1000 nM
Cc1nn(-c2cc(F)cc(C#N)c2)c(C(F)(F)F)c1C#Cc1ccccn1 [Compound 11, 3-fluoro-5-(3-methyl-4-(pyridin-2-ylethynyl)-5-(trifluoromethyl)-1H-pyrazol-1-yl)benzonitrile]	1000 to 5000 nM	
COCCOc1nn(-c2cc(F)cc(C#N)c2)c(C)c1C#Cc1ccccn1 [Compound 29, 3-fluoro-5-(3-(2-methoxyethoxy)-5-methyl-4-(pyridin-2-ylethynyl)-1H-pyrazol-1-yl)benzonitrile]	≤ 500 nM	
Cc1cc(C#Cc2cccnc2)nn1-c1ccc(OC(F)(F)F)cc1 [Compound 132, 3-((5-methyl-1-(4-(trifluoromethoxy)phenyl)-1H-pyrazol-3-yl)ethynyl)pyridine]		1000 to 5000 nM
COc1c(C#Cc2ccccn2)cnn1-c1ccc(F)cc1 [Compound 51, 2-((1-(4-fluorophenyl)-5-methoxy-1H-pyrazol-4-yl)ethynyl)pyridine]	≤ 500 nM	
N#Cc1cc(F)cc(-n2ccc(C#Cc3ccncc3)n2)c1 [Compound 110, 3-fluoro-5-(3-(pyridin-4-ylethynyl)-H-pyrazol-1-yl)benzonitrile]		≤ 500 nM
Cc1cc(C#Cc2ccnc(Cl)c2)nn1-c1cc(F)cc(C#N)c1 [Compound 100, 3-(3-((2-chloropyridin-4-yl)ethynyl)-5-methyl-1H-pyrazol-1-yl)-5-fluorobenzonitrile]		≤ 500 nM
N#Cc1cc(F)cc(-n2ccc(C#Cc3cccc(Cl)c3)n2)c1 [Compound 107, 3-(3-((3-chlorophenyl)ethynyl)-1H-pyrazol-1-yl)-5-fluorobenzonitrile]		≤ 500 nM
COc1nn(-c2ccc(F)cc2)cc1C#Cc1ccccn1 [Compound 52, 2-((1-(4-fluorophenyl)-3-methoxy-1H-pyrazol-4-yl)ethynyl)pyridine]	≤ 500 nM	
Cc1cc(C#Cc2cnccn2)nn1-c1ccc(F)cc1 [Compound 129, 2-((1-(4-fluorophenyl)-5-methyl-1H-pyrazol-3-yl)ethynyl)pyrazine]		1000 to 5000 nM
FC(F)(F)Oc1ccc(-n2cc(C#Cc3ccncc3)cn2)cc1 [Compound 94, 4-((1-(4-(trifluoromethoxy)phenyl)-1H-pyrazol-4-yl)ethynyl)pyridine]	500 to 1000 nM	

Structure (SMILES)	IC50 [1]	IC50 [2]
Cc1nn(-c2ccc(OC(F)(F)F)cc2)c(C)c1C#Cc1ncccn1 [Compound 14, 2-((3,5-dimethyl-1-(4-(trifluoromethoxy)phenyl)-1H-pyrazol-4-yl)ethynyl) pyrimidine]	≤ 500 nM	
COc1c(C#Cc2ccccn2)c(C)nn1-c1ccc(F)cc1 [Compound 9, 2-((1-(4-fluorophenyl)-5-methoxy-3-methyl-1H-pyrazol-4-yl)ethynyl)pyridine]	≤ 500 nM	
N#Cc1cc(F)cc(-n2cc(C#Cc3ccccn3)c(OCCO)n2)c1 [Compound 48, 3-fluoro-5-(3-(2-hydroxyethoxy)-4-(pyridin-2-ylethynyl)-1H-pyrazol-1-yl)benzonitrile]	≤ 500 nM	
Cc1cc(C#Cc2ccnc(Cl)c2)nn1-c1ccc(F)cc1 [Compound 131, 2-chloro-4-((1-(4-fluorophenyl)-5-methyl-1H-pyrazol-3-yl)ethynyl) pyridine]		≤ 500 nM
FC(F)(F)Oc1ccc(-n2ccc(C#Cc3ncccn3)n2)cc1 [Compound 123, 2-((1-(4-(trifluoromethoxy)phenyl)-1H-pyrazol-3-yl)ethynyl) pyrimidine]		1000 to 5000 nM
FC(F)(F)Oc1ccc(-n2cc(C#Cc3ccccn3)c(Cl)n2)cc1 [Compound 40, 2-((3-chloro-1-(4-(trifluoromethoxy)phenyl)-1H-pyrazol-4-yl)ethynyl)pyridine]	≤ 500 nM	
Cc1cn(-c2cc(F)cc(C#N)c2)nc1C#Cc1ncccn1 [Compound 60, 3-fluoro-5-(4-methyl-3-(pyrimidin-2-ylethynyl)-1H-pyrazol-1-yl) benzonitrile]		≤ 500 nM
N#Cc1cc(F)cc(-n2cc(C#Cc3ccccn3)c(Cl)n2)c1 [Compound 38, 3-(3-chloro-4-(pyridin-2-ylethynyl)-1H-pyrazol-1-yl)-5-fluorobenzonitrile]	≤ 500 nM	
Fc1ccc(-n2cc(C#Cc3ccncc3)cn2)cc1 [Compound 87]	≤ 500 nM	
Fc1ccc(-n2ccc(C#Cc3ccncc3)n2)cc1 [Compound 118, 4-((1-(4-fluorophenyl)-1H-pyrazol-3-yl)ethynyl)pyridine]		≤ 500 nM
CS(=O)(=O)c1ccc(-n2cc(C#Cc3ccccn3)cn2)cc1 [Compound 46, 2-((1-(4-(methylsulfonyl)phenyl)-1H-pyrazol-4-yl)ethynyl)pyridine]	500 to 1000 nM	
COCCOc1nn(-c2ccc(F)cn2)cc1C#Cc1ccccn1 [Compound 64, S-fluoro-2-(3-(2-methoxyethoxy)-4-(pyridin-2-ylethynyl)-1H-pyrazol-1-yl)pyridine]	500 to 1000 nM	
Fc1ccc(-n2cc(C#Cc3ncccn3)c(Cl)n2)cc1 [Compound 43, 2-((3-chloro-1-(4-fluorophenyl)-1H-pyrazol-4-yl)ethynyl)pyrimidine]	≤ 500 nM	
Fc1ccc(-n2ccc(C#Cc3ccnc(Cl)c3)n2)cc1 [Compound 116, 2-chloro-4-((1-(4-fluorophenyl)-1H-pyrazol-3-yl)ethynyl)pyridine]		≤ 500 nM
Cc1cc(C#Cc2ccncc2)nn1-c1cc(F)cc(C#N)c1 [Compound 102, 3-fluoro-5-(5-methyl-3-(pyridin-4-ylethynyl)-1H-pyrazol-1-yl) benzonitrile]		≤ 500 nM
Cc1cc(C#Cc2ccnc(Cl)c2)nn1-c1ccc(OC(F)(F)F)cc1 [Compound 135, 2-chloro-4-((5-methyl-1-(4-(trifluoromethoxy)phenyl)-1H-pyrazol-3-yl)ethynyl)pyridine]		1000 to 5000 nM
Cc1nn(-c2ccc(F)cn2)cc1C#Cc1ccccn1 [Compound 63, 5-fluoro-2-(3-methyl-4-(pyridin-2-ylethynyl)-1H-pyrazol-1-yl)]	≤ 500 nM	
Fc1ccc(-n2cc(C#Cc3ccccn3)cn2)cc1 [Compound 82, 2-((1-(4-fluorophenyl)-1H-pyrazol-4-yl)ethynyl)pyridine]	≤ 500 nM	
FC(F)(F)Oc1ccc(-n2cc(C#Cc3cccc(Cl)c3)cn2)cc1 [Compound 92, 4-((3-chlorophenyl)ethynyl)-1-(4-(trifluoromethoxy)phenyl)-1H-pyrazole]	≤ 500 nM	
Cc1cc(C#Cc2ccccn2)nn1-c1ccc(F)cc1 [Compound 126]		≤ 500 nM
Cc1c(C#Cc2ccccn2)cnn1-c1cc(F)cc(C#N)c1 [Compound 50, 3-fluoro-5-(5-methyl-4-(pyridin-2-ylethynyl)-1H-pyrazol-1-yl) benzonitrile]	≤ 500 nM	
Fc1ccc(-n2cc(C#Cc3ccccn3)c(OC(F)F)n2)nc1 [Compound 68, 2-(3-(difluoromethoxy)-4-(pyridin-2-ylethynyl)-1H-pyrazol-1-yl)-5-fluoropyridine]	≤ 500 nM	
